Test results published in patent publication US10308659B2, “Pyridine derivatives” (Hoffmann-La Roche Inc., priority 2013, dated 2019).
Like-named read-outs stand apart in the source and are kept apart here.

Legend:
human CB1 receptors = human CB1 receptors (Homo sapiens (Human), UniProt P21554); assay: cAMP assay, CHO cells expressing human CB1 receptors; type: cell-based
Procedure: (§1) CHO cells expressing human CB1 or CB2 receptors are seeded 17-24 hours prior to the experiment 50.000 cells per well in a black 96 well plate with flat clear bottom (Corning Costar #3904) in DMEM (Invitrogen No. 31331), 1×HT supplement, with 10% fetal calf serum and incubated at 5% CO2 and 37° C. in a humidified incubator. The growth medium was exchanged with Krebs Ringer Bicarbonate buffer with 1 mM IBMX and incubated at 30° C. for 30 min. Compounds were added to a final assay volume of 100 μl and incubated for 30 min at 30° C. […] The time-resolved energy transfer is measured by a TRF reader (Evotec Technologies GmbH), equipped with a ND:YAG laser as excitation source. The plate is measured twice with the excitation at 355 nm and at the emission with a delay of 100 ns and a gate of 100 ns, total exposure time 10 s at 730 (bandwidth30 nm) or 645 nm (bandwidth 75 nm), respectively. The FRET signal is calculated as follows: FRET=T730-Alexa730-P(T645-B645) with P=Ru730-B730/Ru645-B645, where T730 is the test well measured at 730 nM, T645 is the test well measured at 645 nm, B730 and B645 are the buffer controls at 730 nm and 645 nm, respectively. cAMP content is determined from the function of a standard curve spanning from 10 μM to 0.13 nM cAMP.
(§2) EC50 values were determined using Activity Base analysis (ID Business Solution, Limited).

human CB2 receptors = human CB2 receptors (Homo sapiens (Human), UniProt P34972); assay: cAMP assay, CHO cells expressing human CB2 receptors; type: cell-based
Procedure: as §1, §2

[1] = functional cAMP assay, CHO cells expressing human CB1, read-out: EC50 CB1 human
[2] = functional cAMP assay, CHO cells expressing human CB2, read-out: EC50 CB2 human

human CB1 receptors, sequence (P21554 whole entry): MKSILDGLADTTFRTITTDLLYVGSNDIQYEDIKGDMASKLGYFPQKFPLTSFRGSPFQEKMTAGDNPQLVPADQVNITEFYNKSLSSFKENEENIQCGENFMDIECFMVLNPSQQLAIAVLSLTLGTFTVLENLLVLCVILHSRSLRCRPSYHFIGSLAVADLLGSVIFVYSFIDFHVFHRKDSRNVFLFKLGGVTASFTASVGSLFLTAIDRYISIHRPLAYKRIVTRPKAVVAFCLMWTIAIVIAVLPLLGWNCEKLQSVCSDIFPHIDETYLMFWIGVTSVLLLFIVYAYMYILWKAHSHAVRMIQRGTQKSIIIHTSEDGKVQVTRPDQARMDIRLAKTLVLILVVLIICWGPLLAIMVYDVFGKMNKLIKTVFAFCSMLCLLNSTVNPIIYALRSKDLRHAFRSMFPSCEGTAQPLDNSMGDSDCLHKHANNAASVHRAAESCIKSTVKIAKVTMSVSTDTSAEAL
human CB2 receptors, sequence (P34972 whole entry): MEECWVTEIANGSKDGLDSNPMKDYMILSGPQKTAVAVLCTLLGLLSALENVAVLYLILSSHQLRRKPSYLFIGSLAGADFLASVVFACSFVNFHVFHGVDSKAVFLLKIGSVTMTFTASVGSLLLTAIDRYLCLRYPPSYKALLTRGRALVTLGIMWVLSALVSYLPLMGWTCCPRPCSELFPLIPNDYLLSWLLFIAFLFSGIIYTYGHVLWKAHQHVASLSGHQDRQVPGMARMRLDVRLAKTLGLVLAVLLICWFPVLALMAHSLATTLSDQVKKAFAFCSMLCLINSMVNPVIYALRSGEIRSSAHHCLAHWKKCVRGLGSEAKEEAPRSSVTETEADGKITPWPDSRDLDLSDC

Structure (SMILES) | EC50 (human CB1 receptors; [1]) [nM] | EC50 (human CB2 receptors; [2]) [nM] | EC50 (human CB1 receptors) [nM] | EC50 (human CB2 receptors) [nM]
Cc1noc(-c2cc(OCC3CC3)c(C3CC3)cn2)n1 [Example 1, 5-[5-cyclopropyl-4-(cyclopropylmethoxy)pyridin-2-yl]-3-methyl-1,2,4-oxadiazole] | > 10000 | 25.7 |  | 
c1ccc(-c2noc(-c3cc(OCC4CC4)c(C4CC4)cn3)n2)cc1 [Example 2, 5-[5-cyclopropyl-4-(cyclopropylmethoxy)pyridin-2-yl]-3-phenyl-1,2,4-oxadiazole] | > 10000 | 23.1 |  | 
c1c(-c2nc(C3CC3)no2)ncc(C2CC2)c1OCC1CC1 [Example 3, 3-cyclopropyl-5-[5-cyclopropyl-4-(cyclopropylmethoxy)pyridin-2-yl]-1,2,4-oxadiazole] | > 10000 | 1.2 |  | 
c1c(-c2nc(C3CCCC3)no2)ncc(C2CC2)c1OCC1CC1 [Example 4, 3-cyclopentyl-5-[5-cyclopropyl-4-(cyclopropylmethoxy)pyridin-2-yl]-1,2,4-oxadiazole] | > 10000 | 2.1 |  | 
c1ccc(Cc2noc(-c3cc(OCC4CC4)c(C4CC4)cn3)n2)cc1 [Example 5, 3-benzyl-5-[5-cyclopropyl-4-(cyclopropylmethoxy)pyridin-2-yl]-1,2,4-oxadiazole] | > 10000 | 69.1 |  | 
CC(C)(C)c1noc(-c2cc(OCC3CC3)c(C3CC3)cn2)n1 [Example 6, 3-tert-butyl-5-[5-cyclopropyl-4-(cyclopropylmethoxy)pyridin-2-yl]-1,2,4-oxadiazole] | 9.2 | 1 |  | 
FC(F)(F)COc1cc(-c2nc(C3CC3)no2)ncc1C1CC1 [Example 7, 3-cyclopropyl-5-[5-cyclopropyl-4-(2,2,2-trifluoroethoxy)pyridin-2-yl]-1,2,4-oxadiazole] | > 10000 |  |  | 
FC(F)(F)COc1cc(-c2nc(C(F)(F)F)no2)ncc1C1CC1 [Example 8, 5-[5-cyclopropyl-4-(2,2,2-trifluoroethoxy)pyridin-2-yl]-3-(trifluoromethyl)-1,2,4-oxadiazole] | > 10000 | 21.3 |  | 
c1c(-c2noc(C3CC3)n2)ncc(C2CC2)c1OCC1CC1 [Example 9, 5-cyclopropyl-3-[5-cyclopropyl-4-(cyclopropylmethoxy)pyridin-2-yl]-1,2,4-oxadiazole] |  |  | > 10000 | 15.8
CCC1(CC)COC(c2cc(OCC3CC3)c(C3CC3)cn2)=N1 [Example 11, 2-[5-cyclopropyl-4-(cyclopropylmethoxy)pyridin-2-yl]-4,4-diethyl-5H-1,3-oxazole] | > 10000 | 0.6 |  | 
COCc1nc(-c2cc(OCC3CC3)c(C3CC3)cn2)no1 [Example 12, 3-[5-cyclopropyl-4-(cyclopropylmethoxy)pyridin-2-yl]-5-(methoxymethyl)-1,2,4-oxadiazole] | > 10000 | 46.6 |  | 
CCc1nc(-c2cc(OCC3CC3)c(C3CC3)cn2)no1 [Example 13, 3-[5-cyclopropyl-4-(cyclopropylmethoxy)pyridin-2-yl]-5-ethyl-1,2,4-oxadiazole] | > 10000 | 31.9 |  | 
CC(C)c1nc(-c2cc(OCC3CC3)c(C3CC3)cn2)no1 [Example 14, 3-[5-cyclopropyl-4-(cyclopropylmethoxy)pyridin-2-yl]-5-propan-2-yl-1,2,4-oxadiazole] | > 10000 | 3.7 |  | 
FC(F)(F)COc1cc(-c2nc(C3CC3)no2)ncc1N1CC(F)(F)C1 [Example 15, 3-cyclopropyl-5-[5-(3,3-difluoroazetidin-1-yl)-4-(2,2,2-trifluoroethoxy)pyridin-2-yl]-1,2,4-oxadiazole] | > 10000 | 19.8 |  | 
Cc1noc(-c2cc(OCC(F)(F)F)c(N3CC(F)(F)C3)cn2)n1 [Example 16, 5-[5-(3,3-difluoroazetidin-1-yl)-4-(2,2,2-trifluoroethoxy)pyridin-2-yl]-3-methyl-1,2,4-oxadiazole] | > 10000 | 343 |  | 
CC(C)(C)c1noc(-c2cc(OCC(F)(F)F)c(N3CC(F)(F)C3)cn2)n1 [Example 17, 3-tert-butyl-5-[5-(3,3-difluoroazetidin-1-yl)-4-(2,2,2-trifluoroethoxy)pyridin-2-yl]-1,2,4-oxadiazole] | > 10000 |  |  | 
OCc1nc(-c2cc(OCC3CC3)c(C3CC3)cn2)no1 [Example 18, [3-[5-cyclopropyl-4-(cyclopropylmethoxy)pyridin-2-yl]-1,2,4-oxadiazol-5-yl]methanol] | > 10000 | 110 |  | 

Structure (SMILES) | EC50 (human CB1 receptors; [1]) [nM] | EC50 (human CB2 receptors; [2]) [nM] | EC50 (human CB1 receptors) [nM] | EC50 (human CB2 receptors) [nM]
FC(F)(F)c1nc(-c2cc(OCC3CC3)c(C3CC3)cn2)no1 [Example 19, 3-[5-cyclopropyl-4-(cyclopropylmethoxy)pyridin-2-yl]-5-(trifluoromethyl)-1,2,4-oxadiazole] | > 10000 | 13.7 |  | 
CC(C)(C)[C@H]1COC(c2cc(OCC3CC3)c(C3CC3)cn2)=N1 [Example 20, (4S)-4-tert-butyl-2-[5-cyclopropyl-4-(cyclopropylmethoxy)pyridin-2-yl]-4,5-dihydro-1,3-oxazole] | > 10000 | 3.7 |  | 
CCC1COC(c2cc(OCC3CC3)c(C3CC3)cn2)=N1 (stereo not shown) [Example 21, 2-[5-cyclopropyl-4-(cyclopropylmethoxy)pyridin-2-yl]-4-ethyl-4,5-dihydro-1,3-oxazole] | > 10000 | 70 |  | 
c1c(C2=NC3(CCCCC3)CO2)ncc(C2CC2)c1OCC1CC1 [Example 22, 2-[5-cyclopropyl-4-(cyclopropylmethoxy)pyridin-2-yl]-3-oxa-1-azaspiro[4.5]dec-1-ene] |  | 4.2 |  | 
OC1(c2nc(-c3cc(OCC4CC4)c(C4CC4)cn3)no2)CC1 [Example 23, 1-[3-[5-cyclopropyl-4-(cyclopropylmethoxy)pyridin-2-yl]-1,2,4-oxadiazol-5-yl]cyclopropan-1-ol] | > 10000 | 35.2 |  | 
CC1(c2nc(-c3cc(OCC4CC4)c(C4CC4)cn3)no2)CC1 [Example 24, 3-[5-cyclopropyl-4-(cyclopropylmethoxy)pyridin-2-yl]-5-(1-methylcyclopropyl)-1,2,4-oxadiazole] | 581 | 4.3 |  | 
NC(=O)C1(c2nc(-c3cc(OCC4CC4)c(C4CC4)cn3)no2)CC1 [Example 25, 1-[3-[5-cyclopropyl-4-(cyclopropylmethoxy)pyridin-2-yl]-1,2,4-oxadiazol-5-yl]cyclopropane-1-carboxamide] | > 10000 | 135 |  | 
CC(C)(O)c1nc(-c2cc(OCC3CC3)c(C3CC3)cn2)no1 [Example 26, 2-[3-[5-cyclopropyl-4-(cyclopropylmethoxy)pyridin-2-yl]-1,2,4-oxadiazol-5-yl]propan-2-ol] | > 10000 |  |  | 
CCC1(CC)COC(c2cc(OCC(F)(F)F)c(C3CC3)cn2)=N1 [Example 27, 2-[5-cyclopropyl-4-(2,2,2-trifluoroethoxy)pyridin-2-yl]-4,4-diethyl-5H-1,3-oxazole] | > 10000 | 3.5 |  | 
CC1(c2nc(-c3cc(OCC4CC4)c(C4CC4)cn3)no2)COC1 [Example 28, 3-[5-cyclopropyl-4-(cyclopropylmethoxy)pyridin-2-yl]-5-(3-methyloxetan-3-yl)-1,2,4-oxadiazole] | > 10000 | 16 |  | 
c1c(-c2noc(C3CNC3)n2)ncc(C2CC2)c1OCC1CC1 [Example 29, 5-(azetidin-3-yl)-3-[5-cyclopropyl-4-(cyclopropylmethoxy)pyridin-2-yl]-1,2,4-oxadiazole] | > 10000 | 797 |  | 
CC1(c2nc(-c3cc(OCC(F)(F)F)c(C4CC4)cn3)no2)CC1 [Example 34, 3-[5-cyclopropyl-4-(2,2,2-trifluoroethoxy)pyridin-2-yl]-5-(1-methylcyclopropyl)-1,2,4-oxadiazole] | > 10000 |  |  | 
CC(C)(C)c1nc(-c2cc(OCC(F)(F)F)c(N3CC(F)(F)C3)cn2)no1 [Example 44, 5-tert-butyl-3-[5-(3,3-difluoroazetidin-1-yl)-4-(2,2,2-trifluoroethoxy)pyridin-2-yl]-1,2,4-oxadiazole] | > 10000 |  |  | 
CC(C)(C)c1nc(-c2cc(N3CCC4(COC4)C3)c(C3CC3)cn2)no1 [Example 76, 7-[2-(5-tert-butyl-1,2,4-oxadiazol-3-yl)-5-cyclopropylpyridin-4-yl]-2-oxa-7-azaspiro[3.4]octane] | > 10000 |  |  | 
CC(C)(C)c1nc(-c2cc(OCC3COCCN3)c(C3CC3)cn2)no1 (stereo not shown) [Example 102, 3-[[2-(5-tert-butyl-1,2,4-oxadiazol-3-yl)-5-cyclopropylpyridin-4-yl]oxymethyl]morpholine] | > 10000 |  |  | 
CC(C)(C)c1nc(-c2cc(OCc3ccc(F)cc3)c(C3CC3)c(Cl)n2)no1 [Example 112, 5-tert-butyl-3-(6-chloro-5-cyclopropyl-4-(4-fluorobenzyloxy)pyridin-2-yl)-1,2,4-oxadiazole] | 73.2 |  |  | 
CC(C)(C)c1nnc(-c2cc(OCC(F)(F)F)c(C3CC3)cn2)o1 [Example 113, 2-tert-butyl-5-[5-cyclopropyl-4-(2,2,2-trifluoroethoxy)pyridin-2-yl]-1,3,4-oxadiazole] | > 10000 |  |  | 
